As usually defined, the Kd is the concentration at which binding is half-saturated. A word on the half-life: it is how long it takes for the measured level to halve. One may read the IC50 as the concentration needed to halve the response being measured. A low value points to higher potency.

Data set [1] has as its target Sphingosine 1-phosphate receptor 2 (Homo sapiens, UniProt O95136). As to the kind of experiment: Binding affinity to S1PR2 (unknown origin) assessed as dissociation constant by surface plasmon resonance analysis.
Data set [2] in a line: Metabolic stability in rat plasma assessed as half life at 1 mg/ml incubated for 48 hrs by HPLC analysis. The data set is classed as ADME, cell-free.
The test system of data set [3] is SW620/5-FU. Put plainly: Induction of apoptosis in human SW620/5-FU cells assessed as late apoptotic cells at 10 uM incubated for 24 hrs by Annexin-V/PI staining based flow cytometry assay (reference value: 2.97%). The data set is classed as functional. For orientation: In flow cytometry, cells or beads pass a laser one at a time.
Data set [4] concerns SW620/5-FU. Put plainly: Induction of apoptosis in human SW620/5-FU cells assessed as viable cells at 10 uM incubated for 24 hrs in presence of 5-FU by Annexin-V/PI staining based flow cytometry assay (reference value: 94.3%). The data set is classed as functional. The following applies: read-out: Activity.
The test system of data set [5] is SW620/5-FU. Put plainly: Induction of apoptosis in human SW620/5-FU cells assessed as late apoptotic cells at 20 uM incubated for 24 hrs in presence of 5-FU by Annexin-V/PI staining based flow cytometry assay (reference value: 2.97%). The data set is classed as functional.
The subject of data set [6] is SW620/5-FU. Put plainly: Antitumor activity against human SW620/5-FU cells xenografted in nude mouse assessed as tumor volume at 1 mg/kg/day, iv measured on day 1 in presence of 5-FU (reference value: 105 +/- 14 mm3). The data set is classed as functional. The following applies: time 1 day. A general note: A xenograft is tissue or cells of one species grown in another, often human tumour cells in immunodeficient mice.

The test system of data set [7] is SW620/5-FU. Put plainly: Antitumor activity against human SW620/5-FU cells xenografted in nude mouse assessed as tumor wight at 5 mg/kg/day, iv in presence of 5-FU (reference value: 1.3 +/-0.6 g). The data set is classed as functional.
Data set [8] in a line: Toxicity in nude mouse xenografted with human SW620/5-FU cells assessed as morphological changes in spleen at 1 to 10 mg/kg/day, iv by hematoxylin-eosin staining based analysis. The data set is classed as organism-based. The following applies: in vivo, dose 1-10 mg/kg/day.
For data set [9], the system named is HCT-116. As to the kind of experiment: cells. The settings on record: Homo sapiens, HCT-116, 48 h.
Description: Reversal of 5-FU resistance in human HCT-116 cells overexpressing DPD assessed as reduction in 5-Fluorouracil IC50 at 2 uM incubated for 48 hrs (Rvb = 1836.66 +/- 87.95 %)
The test system of data set [10] is HCT-116. Put plainly: cells. The settings on record: Homo sapiens, HCT-116, 48 h. The source holds these as a separate data set.
Description: Reversal of 5-FU resistance in human HCT-116 cells overexpressing DPD assessed as reduction in 5-Fluorouracil IC50 at 5 uM incubated for 48 hrs (Rvb = 1836.66 +/- 87.95 %)

Sphingosine 1-phosphate receptor 2, sequence (O95136 whole entry): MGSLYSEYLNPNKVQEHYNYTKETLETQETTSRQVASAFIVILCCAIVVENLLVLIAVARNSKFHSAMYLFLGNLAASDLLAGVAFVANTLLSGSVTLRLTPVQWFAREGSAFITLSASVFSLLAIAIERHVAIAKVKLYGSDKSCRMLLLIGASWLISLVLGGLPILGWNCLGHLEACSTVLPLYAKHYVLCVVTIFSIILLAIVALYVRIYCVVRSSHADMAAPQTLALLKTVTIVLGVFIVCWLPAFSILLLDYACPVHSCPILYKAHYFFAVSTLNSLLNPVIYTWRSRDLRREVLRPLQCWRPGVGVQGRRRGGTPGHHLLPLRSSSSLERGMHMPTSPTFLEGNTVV

In the case of `CCC(CC)CN1CCN(C(=O)Nc2cc(Oc3ccc(F)cc3)cc(Oc3ccc(C(=O)NC)cc3)c2)CC1`, the Kd in data set [1] is 0.00073 µM. In addition, the half-life at 1 mg/ml in [2] was over 48 h. Besides, the Activity is 2.76% in data set [3]; 7.14% in data set [5]; 104 mm3 in data set [6]; 0.5 g in data set [7]; “Non-Toxic” in data set [8]. In addition, the viability at 10 µM in data set [4] turned out to be 87.7%. For the same compound, the IC50 in [9] worked out at 56.4 µM; in [10], 45.1 µM.
